Laboratory results from ChEMBL document CHEMBL1129432, “Structure-activity relationships of a series of novel (piperazinylbutyl)thiazolidinone antipsychotic agents related to 3-[4-[4-(6-fluorobenzo[b]thien-3-yl)-1-piperazinyl]butyl]-2,5,5- trimethyl-4-thiazolidinone maleate” (J Med Chem, 1996).

Assays:
[1] = biological target: T1, 5-hydroxytryptamine receptor 1A (Rattus norvegicus, UniProt P19327); experiment: Binding affinity towards serotonin 5-HT1A receptor was determined in rat hippocampus using [3H]8-OH-DPAT as ligand; assay type: tissue-based
T1 sequence (P19327 whole entry): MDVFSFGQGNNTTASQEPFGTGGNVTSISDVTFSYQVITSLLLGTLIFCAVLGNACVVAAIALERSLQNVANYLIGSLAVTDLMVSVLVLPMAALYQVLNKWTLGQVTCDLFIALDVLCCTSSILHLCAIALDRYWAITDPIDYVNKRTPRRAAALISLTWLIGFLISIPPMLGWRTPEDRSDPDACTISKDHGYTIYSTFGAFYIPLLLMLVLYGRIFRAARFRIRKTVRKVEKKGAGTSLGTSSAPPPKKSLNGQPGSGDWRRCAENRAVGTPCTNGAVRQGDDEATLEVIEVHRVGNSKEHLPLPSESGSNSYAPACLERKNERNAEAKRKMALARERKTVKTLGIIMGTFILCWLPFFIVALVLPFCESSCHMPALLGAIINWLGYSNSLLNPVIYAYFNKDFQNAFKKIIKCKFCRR

Rattus norvegicus [2] = experiment: Compound at an intraperitoneal dose of 20 mg/Kg was tested for the inhibition of apomorphine-induced stereotypy in rat; assay type: functional; design: scale not given: the % may be the effect or the level left
[3] = biological target: Serotonin 2 (5-HT2) receptor (Rattus norvegicus, UniProt P30994+P08909+P14842); experiment: Binding affinity towards serotonin 5-HT2 receptor was determined in rat cortex using [3H]spiperone as ligand
[4] = Compound at an intraperitoneal dose of 40 mg/Kg was tested for the inhibition of apomorphine-induced stereotypy in rat; assay type: functional; design: scale not given: the % may be the effect or the level left
D(2) dopamine receptor = D(2) dopamine receptor (Rattus norvegicus, UniProt P61169); experiment: Binding affinity towards Dopamine receptor D2 was determined in rat striatum using [3H]- spiperone as radioligand; assay type: tissue-based
Rattus norvegicus [5] = experiment: Compound at an intraperitoneal dose of 5 mg/Kg was tested for the inhibition of apomorphine-induced stereotypy in rat; assay type: functional; design: scale not given: the % may be the effect or the level left
Rattus norvegicus [6] = experiment: Compound at an intraperitoneal dose of 2.5 mg/Kg was tested for the inhibition of apomorphine-induced stereotypy in rat; assay type: functional; design: scale not given: the % may be the effect or the level left
Rattus norvegicus [7] = experiment: Compound at an intraperitoneal dose of 10 mg/Kg was tested for the inhibition of apomorphine-induced stereotypy in rat; assay type: functional; design: scale not given: the % may be the effect or the level left
[8] = Intraperitoneal effective dose required for inhibition of apomorphine-induced stereotypy in rat; assay type: functional; conditions: ip
Rattus norvegicus [9] = experiment: Compound at an intraperitoneal dose of 80 mg/Kg was tested for the inhibition of apomorphine-induced stereotypy in rat; assay type: functional; design: scale not given: the % may be the effect or the level left

Sequence of D(2) dopamine receptor (P61169 whole entry): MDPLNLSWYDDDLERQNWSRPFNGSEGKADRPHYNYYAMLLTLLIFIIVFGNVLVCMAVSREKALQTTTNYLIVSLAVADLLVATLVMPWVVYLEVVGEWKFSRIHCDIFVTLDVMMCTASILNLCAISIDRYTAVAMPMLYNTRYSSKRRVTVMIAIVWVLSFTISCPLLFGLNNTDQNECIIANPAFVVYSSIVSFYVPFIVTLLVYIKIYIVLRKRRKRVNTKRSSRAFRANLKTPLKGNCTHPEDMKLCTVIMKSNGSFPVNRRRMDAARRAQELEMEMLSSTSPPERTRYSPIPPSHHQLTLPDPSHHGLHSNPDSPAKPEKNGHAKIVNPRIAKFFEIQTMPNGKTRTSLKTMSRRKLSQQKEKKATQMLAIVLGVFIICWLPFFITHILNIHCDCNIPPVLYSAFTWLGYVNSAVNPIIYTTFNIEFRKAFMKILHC

SMILES | IC50 [1] [nM] | IC50 [3] [nM] | IC50 (D(2) dopamine receptor) [nM] | further results
CC1SC(C)(C)C(=O)N1CCCCN1CCN(c2nsc3ccccc23)CC1 (stereo not given) | 7 | 2 | – | Activity (Rattus norvegicus [2]): 0%; Activity [4]: 40%
CC1(C)SCC(=O)N1CCCCN1CCN(c2cccc(Cl)c2)CC1 | – | – | 835 | –
CC(C)(O)C1SCN(CCCCN2CCN(c3csc4cc(F)ccc34)CC2)C1=O (stereo not given) | 91 | 105 | 453 | Activity (Rattus norvegicus [5]): 40%; Activity (Rattus norvegicus [6]): 10%
CC1SC2(CCCC2)C(=O)N1CCCCN1CCN(c2csc3cc(Cl)ccc23)CC1 (stereo not given) | 776 | 580 | 611 | –
CC1(C)SCN(CCCCN2CCN(c3csc4cc(F)ccc34)CC2)C1=O | – | 10 | 14 | Activity (Rattus norvegicus [7]): 0%
Cc1cccc(N2CCN(CCCCN3CSCC3=O)CC2)c1 | 140 | – | 12600 | –
O=C1CSCN1CCCCN1CCN(c2nsc3ccccc23)CC1 | 11 | 7 | 224 | –
Cc1cc2c(s1)Nc1ccccc1N=C2N1CCN(C)CC1 [OLANZAPINE] | – | 47 | – | –
COc1ccccc1N1CCN(CCCCN2C(=O)CSC2(C)C)CC1 | 10 | – | 514 | –
O=C1N(CCCCN2CCN(C3=NS(=O)(=O)c4ccccc43)CC2)CSC12CCCC2 | – | > 20000 | – | –
CC(C)(O)C1SCN(CCCCN2CCN(c3nsc4ccccc34)CC2)C1=O (stereo not given) | 12 | 18.9 | 29 | ED50 [8]: 2.3 mg/kg
CC1(C)SCC(=O)N1CCCCN1CCN(c2nsc3ccccc23)CC1 | 7 | 12 | 193 | –
O=C1CSCN1CCCCN1CCN(c2ccc(F)cc2)CC1 | 140 | – | – | –
CC1SC(C)(C)C(=O)N1CCCCN1CCN(c2cn(-c3ccccc3)c3ccccc23)CC1 (stereo not given) | 2550 | 186 | 200 | Activity [4]: 0%; Activity (Rattus norvegicus [9]): 67%
O=C1CSCN1CCCCN1CCN(c2cccc(C(F)(F)F)c2)CC1 | 34 | – | 1960 | –
CC1(C)SCN(CCCCN2CCN(c3cn(-c4ccccc4)c4ccccc34)CC2)C1=O | 1730 | 294 | 191 | ED50 [8]: 19.6 mg/kg
Cc1nc2n(c(=O)c1CCN1CCC(c3noc4cc(F)ccc34)CC1)CCCC2 [RISPERIDONE] | – | – | – | ED50 [8]: 3.2 mg/kg
O=C1N(CCCCN2CCN(c3cn(-c4ccccc4)c4ccccc34)CC2)CSC12CCCCC2 | – | 45 | 467 | ED50 [8]: 27.4 mg/kg
CC1(C)SCN(CCCCN2CCN(c3cc4ccccc4cn3)CC2)C1=O | 629 | 85 | 8430 | –
COc1ccccc1N1CCN(CCCCN2CSC(C)(C)C2=O)CC1 | 11 | 588 | 548 | –

SMILES | IC50 [1] [nM] | IC50 [3] [nM] | IC50 (D(2) dopamine receptor) [nM] | further results
Cc1ccccc1N1CCN(CCCCN2CSC(C)(C)C2=O)CC1 | 13 | 569 | 1770 | –
CC1(C)SC(C)(C)N(CCCCN2CCN(c3nsc4ccccc34)CC2)C1=O | 17 | 3.5 | 201 | –
COc1ccccc1N1CCN(CCCCN2C(=O)C(C)(C)SC2(C)C)CC1 | 18 | – | – | –
CC1SCC(=O)N1CCCCN1CCN(c2cccc(Cl)c2)CC1 (stereo not given) | 10 | – | 2230 | –
CC1SC(C)(C)C(=O)N1CCCCN1CCN(c2csc3cc(Cl)ccc23)CC1 (stereo not given) | 855 | 1540 | 4730 | –
CC1SC(C)(C)C(=O)N1CCCCN1CCN(c2nsc3cc(Cl)ccc23)CC1 (stereo not given) | – | 271 | – | –
O=C1C(CC(F)(F)F)SCN1CCCCN1CCN(c2nsc3ccccc23)CC1 (stereo not given) | 3 | – | 136 | ED50 [8]: 3.3 mg/kg
O=C1N(CCCCN2CCN(c3csc4ccccc34)CC2)CSC12CCCC2 | 2 | 16 | 244 | –
Cc1cccc(N2CCN(CCCCN3C(=O)C(C)(C)SC3(C)C)CC2)c1 | 38 | 439 | 1840 | –
COc1cccc(N2CCN(CCCCN3CSCC3=O)CC2)c1 | 139 | – | 7490 | –
CC1SC(C)(C)C(=O)N1CCCCN1CCN(c2cn(-c3ccc(F)cc3)c3ccccc23)CC1 (stereo not given) | 3050 | 126 | 59 | ED50 [8]: 16.4 mg/kg
O=C1N(CCCCN2CCN(c3nsc4ccccc34)CC2)CSC12CCCC2 | 2 | 3 | – | Activity (Rattus norvegicus [7]): 90%
O=C1CSCN1CCCCN1CCN(c2ccc3ccccc3n2)CC1 | 332 | 641 | – | –
O=C1CSCN1CCCCN1CCN(c2cccc(Cl)c2)CC1 | 57 | – | 2210 | –
O=C1N(CCCCN2CCN(c3nsc4cc(Cl)ccc34)CC2)CSC12CCCCC2 | 969 | 1060 | 671 | Activity (Rattus norvegicus [2]): 0%; Activity [4]: 80%
CC1(C)SCN(CCCCN2CCN(c3nsc4ccccc34)CC2)C1=O | 8 | 1 | – | ED50 [8]: 8.9 mg/kg
Cc1ccccc1N1CCN(CCCCN2CSCC2=O)CC1 | 61 | – | 1610 | –
O=C1CSCN1CCCCN1CCN(c2ccccc2Cl)CC1 | 23 | – | 652 | –
CC1SC(C)(C)C(=O)N1CCCCN1CCN(c2cn(-c3ccccc3)c3cc(F)ccc23)CC1 (stereo not given) | 8080 | 119 | 1090 | –
Cc1cccc(N2CCN(CCCCN3CSCC3=O)CC2)c1C | 83 | – | 778 | –

SMILES | IC50 [1] [nM] | IC50 [3] [nM] | IC50 (D(2) dopamine receptor) [nM] | further results
COc1ccccc1N1CCN(CCCCN2CSC3(CCCC3)C2=O)CC1 | 2 | 492 | 150 | –
CC1(C)SCN(CCCCN2CCN(c3cn(-c4ccc(F)cc4)c4ccccc34)CC2)C1=O | 2330 | 53 | 131 | ED50 [8]: 7.1 mg/kg
Cc1cccc(N2CCN(CCCCN3C(=O)CSC3(C)C)CC2)c1 | 26 | – | 3750 | –
CC1SC2(CCCC2)C(=O)N1CCCCN1CCN(c2cn(-c3ccccc3)c3ccccc23)CC1 (stereo not given) | 11700 | 98.1 | 356 | ED50 [8]: 41.7 mg/kg
O=C1N(CCCCN2CCN(c3nsc4ccccc34)CC2)CSC12Cc1ccccc1C2 | 52 | 1110 | 697 | Activity [4]: 0%; Activity (Rattus norvegicus [9]): 50%
CC1SCN(CCCCN2CCN(c3nsc4ccccc34)CC2)C1=O (stereo not given) | 11 | 5 | 86 | Activity (Rattus norvegicus [2]): 0%; Activity [4]: 17%
CSc1cccc(N2CCN(CCCCN3C(=O)CSC3(C)C)CC2)c1 | 9 | 503 | 2430 | –
O=C1CSCN1CCCCN1CCN(c2ccc(Cl)cc2)CC1 | 1280 | – | 8760 | –
O=C1CSCN1CCCCN1CCN(c2nc3ccccc3s2)CC1 | 367 | 8420 | – | –
CC1(C)SCN(CCCCN2CCN(c3ccc4ccccc4n3)CC2)C1=O | 153 | 446 | – | –
CC1(C)SCN(CCCCN2CCN(c3cccc(C(F)(F)F)c3)CC2)C1=O | 7 | 90 | 1640 | –
Cc1cccc(N2CCN(CCCCN3CSC(C)(C)C3=O)CC2)c1C | 6 | 414 | 916 | –
Cc1cccc(N2CCN(CCCCN3CSC(C)(C)C3=O)CC2)c1 | 12 | – | – | –
COc1ccccc1N1CCN(CCCCN2CSC(C)C2=O)CC1 (stereo not given) | 220 | – | – | –
O=C1N(CCCCN2CCN(c3csc4ccccc34)CC2)CSC12CCCCC2 | 102 | 196 | 218 | Activity [4]: 33%; Activity (Rattus norvegicus [9]): 50%
CC1(C)SCC(=O)N1CCCCN1CCN(c2cccc(C(F)(F)F)c2)CC1 | – | – | 1130 | –
O=C1N(CCCCN2CCN(c3nsc4ccccc34)CC2)CSC12CCCCC2 | 2 | 18 | – | Activity (Rattus norvegicus [7]): 100%
CC1(C)SCN(CCCCN2CCN(c3nc4ccccc4s3)CC2)C1=O | 1370 | 2310 | – | –
O=C1N(CCCCN2CCN(c3cn(-c4ccc(F)cc4)c4ccccc34)CC2)CSC12CCCCC2 | 9030 | 142 | 18 | –
